In ChEMBL document CHEMBL1152974, “Ionic interactions for substituted MCH1R inhibitors studied by pK(a) values” (Bioorg Med Chem Lett, 2009):

What was measured:
[1] = Association constant, pKa for aliphatic nitrogen; format: physicochemical
[2] = Association constant, pKa for quinoline nitrogen; format: physicochemical

pKa [1]	pKa [2]	Structure (SMILES)
11.8	6.56	CC(=O)Nc1ccc2nc(C(C)CCN(C)C)ccc2c1 (configuration not stated)
10.2	9.05	CC(=O)Nc1ccc2nc(N(C)CCN(C)C)ccc2c1
12.7	8.98	CC(=O)Nc1ccc2nc(CCCN(C)C)ccc2c1
10.8	12.2	CC(=O)Nc1ccc2nc(NCCN(C)C)ccc2c1
11.6	4.33	CC(=O)Nc1ccc2nc(SCCN(C)C)ccc2c1

The remaining lines, values behind:

Structure (SMILES)	pKa [1]	pKa [2]
CC(=O)Nc1ccc2nc(F)ccc2c1		-1.39
CC(=O)Nc1ccc2nc(C(C)(C)CCN(C)C)ccc2c1	12.4	6.22
CC(=O)Nc1ccc2nc(OCCN(C)C)ccc2c1	9.94	4.64
CC(=O)Nc1ccc2nc(N(C)CCO)ccc2c1		8.91
CC(=O)Nc1ccc2ncccc2c1		5.51
